Test results reported in patent US20250304644A1, “PEPTIDES TRIPLE AGONISTS OF GIP, GLP-1 AND GLP-2” (BAINAN BIOTECH APS, priority 2021, published 2025).
Read-outs that look alike come from different tables or passages of the source. Where a SMILES comes first, the peptide text is derived from it. [ ]: non-standard residue; d: D form. The star is where a group is joined. Decanoyl = CCCCCCCCCC(=O)*; Aib = CC(C)(N)C(=O)O

How the values were obtained:
Type in all cases: cell-based
human GIPR = target: T1, human GIPR (Homo sapiens, UniProt P48546); assay: cAMP assay (HitHunter) in transiently transfected COS-7 cells expressing human GIPR; conditions: COS-7; normalized to highest concentration of the endogenous ligand; read-out: Efficacy GIPR (Emax)
T1 construct: host or cells: COS-7
T1 sequence (P48546 22-466): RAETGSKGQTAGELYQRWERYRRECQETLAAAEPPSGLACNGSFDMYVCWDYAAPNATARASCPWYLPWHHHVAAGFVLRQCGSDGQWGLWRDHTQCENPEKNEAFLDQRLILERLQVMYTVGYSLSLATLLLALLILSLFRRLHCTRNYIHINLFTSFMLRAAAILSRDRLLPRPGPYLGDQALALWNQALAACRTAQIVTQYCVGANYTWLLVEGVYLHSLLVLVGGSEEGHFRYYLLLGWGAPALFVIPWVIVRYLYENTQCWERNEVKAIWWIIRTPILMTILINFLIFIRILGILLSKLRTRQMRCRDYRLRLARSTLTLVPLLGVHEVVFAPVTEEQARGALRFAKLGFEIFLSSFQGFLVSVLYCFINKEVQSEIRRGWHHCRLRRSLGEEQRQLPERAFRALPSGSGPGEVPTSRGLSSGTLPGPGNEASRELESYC
Method: (§1) The next day the assay was initiated by washing with HEPES buffered saline (HBS) and followed by an incubation step with assay buffer (HBS added 1 mM isobutyl-1-methylxanthine (IBMX)) for 30 min at 37° C. The ligands were then added and incubated for an additional 30 min at 37° C. After ligand incubation, the HitHunter® CAMP assay (Eurofins DiscoverX, Fremont, […] USA) was carried out according to the manufacturer's instructions. […] The potencies (EC50 values) were determined by nonlinear regression using GraphPad Prism 9 (San Diego, California, USA). Sigmoid curves were fitted logistically. The efficacies (Emax values) were determined by normalization to the highest concentration applied of the endogenous ligand for each receptor.

human GLP-1R = target: T2, human GLP-1R (Homo sapiens, UniProt P43220); assay: cAMP assay (HitHunter) in transiently transfected COS-7 cells expressing human GLP-1R; conditions: for Emax: COS-7, normalized to highest concentration of the endogenous ligand, read-out: Efficacy GLP-1R (Emax)
T2 construct: host or cells: COS-7
T2 sequence (P43220 24-463): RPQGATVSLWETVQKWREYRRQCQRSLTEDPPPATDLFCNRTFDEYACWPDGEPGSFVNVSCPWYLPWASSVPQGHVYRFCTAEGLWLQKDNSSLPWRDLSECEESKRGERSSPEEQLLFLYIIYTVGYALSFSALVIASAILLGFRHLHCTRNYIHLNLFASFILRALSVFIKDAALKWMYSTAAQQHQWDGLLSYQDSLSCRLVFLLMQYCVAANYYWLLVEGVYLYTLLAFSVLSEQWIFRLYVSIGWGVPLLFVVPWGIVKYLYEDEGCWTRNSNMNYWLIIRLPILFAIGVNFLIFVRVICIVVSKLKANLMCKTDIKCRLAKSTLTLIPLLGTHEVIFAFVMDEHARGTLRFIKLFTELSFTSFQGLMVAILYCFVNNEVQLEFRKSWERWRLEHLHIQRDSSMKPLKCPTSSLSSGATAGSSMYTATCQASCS
Method: as §1

human GLP-2R = target: T3, human GLP-2R (Homo sapiens, UniProt O95838); assay: cAMP assay (HitHunter) in transiently transfected COS-7 cells expressing human GLP-2R; conditions: for Emax: COS-7, normalized to highest concentration of the endogenous ligand, read-out: Efficacy GLP-2R (Emax)
T3 construct: host or cells: COS-7
T3 sequence (O95838 1-553): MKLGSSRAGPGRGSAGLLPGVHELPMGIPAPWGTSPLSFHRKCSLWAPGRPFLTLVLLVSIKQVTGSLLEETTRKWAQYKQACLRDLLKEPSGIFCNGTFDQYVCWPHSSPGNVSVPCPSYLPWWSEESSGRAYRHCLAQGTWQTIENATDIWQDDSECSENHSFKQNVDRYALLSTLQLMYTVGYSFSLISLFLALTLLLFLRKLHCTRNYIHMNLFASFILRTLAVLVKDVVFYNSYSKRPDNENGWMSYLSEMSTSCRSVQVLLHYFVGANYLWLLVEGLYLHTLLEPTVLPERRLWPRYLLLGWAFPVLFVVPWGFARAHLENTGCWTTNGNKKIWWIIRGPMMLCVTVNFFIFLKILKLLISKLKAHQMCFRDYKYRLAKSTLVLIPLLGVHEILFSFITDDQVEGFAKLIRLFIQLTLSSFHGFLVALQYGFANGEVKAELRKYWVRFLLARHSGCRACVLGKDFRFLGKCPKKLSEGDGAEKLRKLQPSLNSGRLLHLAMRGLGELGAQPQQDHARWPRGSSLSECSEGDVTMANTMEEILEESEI
Method: as §1

[1] = cAMP, COS-7 cells, human GLP-2R, read-out: EC50 (nM) GLP-2R

Structure (SMILES) | Emax (human GIPR) [%] | Emax (human GLP-1R) [%] | Emax (human GLP-2R) [%] | EC50 (human GLP-2R; [1]) [nM] | EC50 (human GLP-1R) [nM] | EC50 (human GLP-2R) [nM] | EC50 (human GLP-1R; cAMP, COS-7 cells, human GLP-1R, read-out: EC50 (nM) GLP-1R) [nM]
CCCCCCCCCC(=O)NCCCC[C@H](NC(=O)[C@@H](NC(=O)[C@@H](NC(=O)[C@H](CCCCN)NC(=O)[C@@H](NC(=O)[C@H](CCC(N)=O)NC(=O)[C@@H](NC(=O)[C@H](CC(C)C)NC(=O)[C@H](Cc1c[nH]c2ccccc12)NC(=O)[C@H](CCC(=O)O)NC(=O)[C@@H](NC(=O)[C@H](Cc1ccccc1)NC(=O)[C@H](CC(=O)O)NC(=O)[C@H](CCCNC(=N)N)NC(=O)[C@H](C)NC(=O)[C@H](C)NC(=O)[C@H](CC(C)C)NC(=O)[C@H](CC(N)=O)NC(=O)[C@H](CC(=O)O)NC(=O)[C@H](CC(C)C)NC(=O)[C@@H](NC(=O)[C@@H](NC(=O)[C@H](CO)NC(=O)[C@H](Cc1ccc(O)cc1)NC(=O)[C@H](CC(=O)O)NC(=O)[C@H](CO)NC(=O)[C@@H](NC(=O)[C@H](Cc1ccccc1)NC(=O)[C@@H](NC(=O)CNC(=O)[C@H](CC(=O)O)NC(=O)C(C)(C)NC(=O)[C@@H](N)Cc1c[nH]cn1)[C@@H](C)O)[C@@H](C)CC)[C@@H](C)O)[C@@H](C)CC)[C@@H](C)CC)[C@@H](C)CC)[C@@H](C)O)[C@@H](C)CC)[C@@H](C)O)C(N)=O [Compound 9] | 104 | 105 | 108 | 11.2 | – | – | –
CCCCCCCCCC(=O)NCCCC[C@H](NC(=O)[C@@H](NC(=O)[C@@H](NC(=O)[C@H](CCCCN)NC(=O)[C@@H](NC(=O)[C@H](CCC(N)=O)NC(=O)[C@@H](NC(=O)[C@H](CC(C)C)NC(=O)[C@H](Cc1c[nH]c2ccccc12)NC(=O)[C@H](CC(N)=O)NC(=O)[C@@H](NC(=O)[C@H](Cc1ccccc1)NC(=O)[C@H](CC(=O)O)NC(=O)[C@H](CCCNC(=N)N)NC(=O)[C@H](C)NC(=O)[C@H](C)NC(=O)[C@H](CC(C)C)NC(=O)[C@H](CC(N)=O)NC(=O)[C@H](CC(=O)O)NC(=O)[C@H](CC(C)C)NC(=O)[C@@H](NC(=O)[C@@H](NC(=O)[C@H](CO)NC(=O)[C@H](Cc1ccc(O)cc1)NC(=O)[C@H](CC(=O)O)NC(=O)[C@H](CO)NC(=O)[C@@H](NC(=O)[C@H](Cc1ccccc1)NC(=O)[C@@H](NC(=O)CNC(=O)[C@H](CC(=O)O)NC(=O)C(C)(C)NC(=O)[C@@H](N)Cc1c[nH]cn1)[C@@H](C)O)[C@@H](C)CC)[C@@H](C)CC)[C@@H](C)CC)[C@@H](C)CC)[C@@H](C)CC)[C@@H](C)O)[C@@H](C)CC)[C@@H](C)O)C(N)=O [Compound 10] (H-H[Aib]DGTFISDYSIILDNLAARDFINWLIQTKITK(Decanoyl)-NH2) | 127 | 99 | 103 | – | 3.98 | 11.2 | –
CCCCCCCCCC(=O)NCCCC[C@H](NC(=O)[C@@H](NC(=O)[C@@H](NC(=O)[C@H](CCCCN)NC(=O)[C@@H](NC(=O)[C@H](CCC(N)=O)NC(=O)[C@@H](NC(=O)[C@H](CC(C)C)NC(=O)[C@H](Cc1c[nH]c2ccccc12)NC(=O)[C@H](CC(N)=O)NC(=O)[C@@H](NC(=O)[C@H](Cc1ccccc1)NC(=O)[C@H](CC(=O)O)NC(=O)[C@H](CCCNC(=N)N)NC(=O)[C@H](C)NC(=O)[C@H](C)NC(=O)[C@H](CC(C)C)NC(=O)[C@H](CC(N)=O)NC(=O)[C@H](CC(=O)O)NC(=O)[C@H](CC(C)C)NC(=O)[C@@H](NC(=O)[C@@H](NC(=O)[C@H](CO)NC(=O)[C@H](Cc1ccc(O)cc1)NC(=O)[C@H](CC(=O)O)NC(=O)[C@H](CO)NC(=O)[C@@H](NC(=O)[C@H](Cc1ccccc1)NC(=O)[C@@H](NC(=O)CNC(=O)[C@H](CCC(=O)O)NC(=O)C(C)(C)NC(=O)[C@@H](N)Cc1c[nH]cn1)[C@@H](C)O)[C@@H](C)CC)[C@@H](C)O)[C@@H](C)CC)[C@@H](C)CC)[C@@H](C)CC)[C@@H](C)O)[C@@H](C)CC)[C@@H](C)O)C(N)=O [Compound 11] (H-H[Aib]EGTFISDYSTILDNLAARDFINWLIQTKITK(Decanoyl)-NH2) | 89 | 76 | 68 | 25.1 | – | – | –
CCCCCCCCCC(=O)NCCCC[C@H](NC(=O)[C@@H](NC(=O)[C@@H](NC(=O)[C@H](CCCCN)NC(=O)[C@@H](NC(=O)[C@H](CCC(N)=O)NC(=O)[C@@H](NC(=O)[C@H](CC(C)C)NC(=O)[C@H](Cc1c[nH]c2ccccc12)NC(=O)[C@H](CC(N)=O)NC(=O)[C@@H](NC(=O)[C@H](Cc1ccccc1)NC(=O)[C@H](CC(=O)O)NC(=O)[C@H](CCCNC(=N)N)NC(=O)[C@H](C)NC(=O)[C@H](C)NC(=O)[C@H](CC(C)C)NC(=O)[C@H](CC(N)=O)NC(=O)[C@H](CC(=O)O)NC(=O)[C@H](CC(C)C)NC(=O)[C@H](CCC(=O)O)NC(=O)[C@@H](NC(=O)[C@H](CO)NC(=O)[C@H](Cc1ccc(O)cc1)NC(=O)[C@H](CC(=O)O)NC(=O)[C@H](CO)NC(=O)[C@@H](NC(=O)[C@H](Cc1ccccc1)NC(=O)[C@@H](NC(=O)CNC(=O)[C@H](CC(=O)O)NC(=O)C(C)(C)NC(=O)[C@@H](N)Cc1c[nH]cn1)[C@@H](C)O)[C@@H](C)CC)[C@@H](C)O)[C@@H](C)CC)[C@@H](C)CC)[C@@H](C)O)[C@@H](C)CC)[C@@H](C)O)C(N)=O [Compound 13] (H-H[Aib]DGTFISDYSTELDNLAARDFINWLIQTKITK(Decanoyl)-NH2) | 117 | 85 | 86 | 25.1 | – | – | 25.1
CCCCCCCCCC(=O)NCCCC[C@H](NC(=O)[C@H](CCCCN)NC(=O)CNC(=O)[C@H](CCCCN)NC(=O)[C@@H](NC(=O)[C@H](CCC(N)=O)NC(=O)[C@@H](NC(=O)[C@H](CC(C)C)NC(=O)[C@H](Cc1c[nH]c2ccccc12)NC(=O)[C@H](CC(N)=O)NC(=O)[C@@H](NC(=O)[C@H](Cc1ccccc1)NC(=O)[C@H](CC(=O)O)NC(=O)[C@H](CCCNC(=N)N)NC(=O)[C@H](C)NC(=O)[C@H](C)NC(=O)[C@H](CC(C)C)NC(=O)[C@H](CC(N)=O)NC(=O)[C@H](CC(=O)O)NC(=O)[C@H](CC(C)C)NC(=O)[C@@H](NC(=O)[C@@H](NC(=O)[C@H](CO)NC(=O)[C@H](Cc1ccc(O)cc1)NC(=O)[C@H](CC(=O)O)NC(=O)[C@H](CO)NC(=O)[C@@H](NC(=O)[C@H](Cc1ccccc1)NC(=O)[C@@H](NC(=O)CNC(=O)[C@H](CC(=O)O)NC(=O)C(C)(C)NC(=O)[C@@H](N)Cc1c[nH]cn1)[C@@H](C)O)[C@@H](C)CC)[C@@H](C)O)[C@@H](C)CC)[C@@H](C)CC)[C@@H](C)CC)[C@@H](C)O)C(N)=O [Compound 14] (H-H[Aib]DGTFISDYSTILDNLAARDFINWLIQTKGKK(Decanoyl)-NH2) | 91 | 96 | 92 | – | – | – | –
